Source: publication PMC4905667, “Discovery of Small-Molecule Modulators of the Human Y4 Receptor” (PLoS ONE, 2016)
Like-named read-outs stand apart in the source and are kept apart here. Values belong to the compound of their own block, whether it stands above or below them. No end group written: not given here.

Tests used:
human Y1R = test system: T1, human Y1R; assay: Inositol phosphate (IP3) accumulation assay, Y1R stimulated with NPY; assay type: cell-based; conditions: for Effect of compound on potency (pEC50) of NPY at Y1R (in words): 30 μM compound vs DMSO, full NPY concentration-response
T1 construct: expressed in transfected cells
Protocol: (§1) COS-7 cells stably expressing hY1/2/4/5R_eYFP fusion protein and the Δ6Gαqi4myr chimeric Gα-protein were prepared as previously described. The hY1/2/4/5R_eYFP cDNA was subcloned into MCS1 of a pVitro2-MCS vector carrying a hygromycin resistance gene; the Δ6Gαqi4myr cDNA was subcloned into MCS1 of a pVitro2-MCS vector carrying a G418 resistance gene (Invivogen, San Diego, CA).
(§2) COS-7 (African Green Monkey kidney) cells stably expressing the hY1/2/4/5R_eYFP fusion protein and the Δ6Gαqi4myr chimeric Gα-protein were cultured at 37°C in high glucose Dulbecco’s Modified Eagle Medium (DMEM, Life Technologies, Carlsbad, CA) with glutamine and sodium pyruvate (Life Technologies/Lonza) supplemented with 10% (w/v) FBS (Invitrogen, Carlsbad, CA), 1.5 mg/mL G418-sulfate (Amresco, Solon, OH) and 133 μg/ml hygromycin (Invivogen).
(§3) Cells were seeded into 48-well plates and incubated for 24 hours at 37°C / 5% CO2. Afterwards, cells were labeled for at least 16 hours in DMEM+10% (w/v) FBS containing 2 μCi/ml myo-[2- ^3H(N)]-inositol (PerkinElmer) at 37°C / 5% CO2. Labeling solution was aspirated and cells were washed with 20 μL/well DMEM + 10 mM LiCl (Sigma-Aldrich; DMEM/LiCl) and stimulated with the peptide solutions and compounds. Specifically, 50 μl/well DMEM/LiCl were added after washing, followed by addition of 50 μl/well test compound in DMEM/LiCl (3-fold over the final concentration) and addition of 50 μl/well peptide solution (3-fold over the final concentration) in DMEM/LiCl. Stimulation was performed for 2 hours at 37°C / 5% CO2. Cell lysis, subsequent sample preparation and radiometric detection was performed as described previously.
(§4) Data analysis was performed with GraphPad Prism 5.03 software (GraphPad Software, San Diego, CA). Calculation of EC50 and pEC50 was performed using standard non-linear regression (log(agonist) vs. response, three parameters). All data were normalized to the corresponding control curve in the absence of the modulator. Final concentration response curves were created by calculating the mean and SEM of all individual experiments for each data point. Statistical evaluation was performed using two-way ANOVA and Bonferroni post test with * P ≤ 0.05, ** P ≤ 0.01, *** P ≤ 0.001.
(§5) Until now, no small molecule agonists of Y receptors have been described. Based on this lack of any structure activity data, identification of Y4R PAMs was initiated with a Ca^2+-flux-based HTS approach. An initial pilot screen was performed with the ‘Spectrum collection’, a small scale library with 2000 compounds comprising synthetic small molecules as well as purified natural products covering a range of known biologically active properties. This pilot screen yielded 65 putative PAMs. All initial hits were retested for off-target effects in wildtype COS-7 cells and the PAM effect was validated via concentration-dependent potentiation of a submaximal PP response. After eliminating structures that show off-target effects, seven compounds with potencies in the micromolar range were identified (S1 Fig) for further investigation. Validation of the Y4R PAM activity was performed with a well-established assay system for Y receptor activation studies, based on cellular accumulation of inositol phosphate. Furthermore, the compound activity at Y1R, Y2R and Y5R was examined at this stage of Y4R PAM identification. Therefore, Y receptor activation with an agonist ligand concentration causing a submaximal response (1 nM, Fig 1) was monitored in presence and absence of test compound. This experimental setup allows the detection of potential compound-induced shifts of the concentration-response curve and parallel testing of all compounds on all Y receptor subtypes. […]

human Y5R = test system: T2, human Y5R; assay: Inositol phosphate (IP3) accumulation assay, Y5R stimulated with NPY; assay type: cell-based; conditions: for Effect of compound on potency (pEC50) of NPY at Y5R (in words): 30 μM compound vs DMSO, full NPY concentration-response
T2 construct: expressed in transfected cells
Protocol: as §1, §2, §3, §4
as §5, with “Furthermore, the compound activity at Y1R, Y2R and Y5R was examined at this stage of Y4R PAM identification.” left out, “compound.” for “compound. This experimental setup allows the detection of potential compound-induced shifts of the concentration-response curve and parallel testing of all compounds on all Y receptor subtypes.”

human Y4R = target: T3, human Y4R (Homo sapiens, UniProt P50391); assay: Inositol phosphate (IP3) accumulation assay, Y4R stimulated with PP; assay type: cell-based; conditions: for Effect of compound on potency (pEC50) of PP at Y4R (in words): 30 μM compound vs DMSO, full PP concentration-response; for EC50 / Y4R PAM activity, potentiation of a PP EC20 response (in words): IP accumulation; for EC50: three independent experiments in duplicate; for IP accumulation following stimulation of Y4R (DMSO set to 100%): 10 μM compound, 1 nM PP, COS-7 cells with Δ6Gαqi4myr, mean ± SEM, n = 2; for Y4R PAM activity, potentiation of a PP EC20 response (in words): concentration-dependent
T3 construct: expressed in transfected cells
Protocol: as §1, §2, §3, §4, §5

[1] = HPLC analysis of stability in DMEM assay conditions; assay type: physicochemical; conditions: pre-incubated in DMEM for 2 hours at 37°C
Protocol: Supplementary file pone.0157146.s003.png: S3 Fig HPLC analysis of VU0118748 stability in DMEM assay conditions. […] To test the stability of VU0118748 in the assay conditions, the compound was pre-incubated in DMEM for 2 hours at 37°C. […] (PNG) Click here for additional data file.

human Y2R = test system: T4, human Y2R; assay: Inositol phosphate (IP3) accumulation assay, Y2R stimulated with NPY; assay type: cell-based; conditions: for Effect of compound on potency (pEC50) of NPY at Y2R (in words): 30 μM compound vs DMSO, full NPY concentration-response
T4 construct: expressed in transfected cells
Protocol: as §1, §2, §3, §4, §5

[2] = test system: db/db mice and high fat diet induced obesity in mice; set-up: method as in PMID 25282357; conditions: fed to mice, high nanomolar blood concentrations; cited from earlier work
Y4R = test system: T5, Y4R; assay: HTS calcium flux assay; assay type: cell-based, human; conditions: Ca2+ flux, COS-7 hY4R_eYFP Δ6Gαqi4myr
T5 construct: expressed in transfected cells
Protocol: as §1, §2
The purities of compounds in the Vanderbilt HTS facility are more than 95% as confirmed by the supplier. A total of 35,288 compounds were tested for their ability to modulate the Y4R activation in conjunction with the Vanderbilt HTS facility. In a pilot HTS experiment, 2000 compounds (spectrum collection, MicroSource Discovery Systems, Inc., Gaylordsville, CT) were screened for modulation of the Y4R. […]

[3] = read-out: EC50, potentiation of a PP EC20 response at Y4R
[4] = read-out: pEC50 ± SEM, potentiation of a PP EC20 response at Y4R (converted)
[5] = 10 μM compound, 1 nM NPY, mean ± SEM, n = 2

T3 sequence (P50391 whole entry): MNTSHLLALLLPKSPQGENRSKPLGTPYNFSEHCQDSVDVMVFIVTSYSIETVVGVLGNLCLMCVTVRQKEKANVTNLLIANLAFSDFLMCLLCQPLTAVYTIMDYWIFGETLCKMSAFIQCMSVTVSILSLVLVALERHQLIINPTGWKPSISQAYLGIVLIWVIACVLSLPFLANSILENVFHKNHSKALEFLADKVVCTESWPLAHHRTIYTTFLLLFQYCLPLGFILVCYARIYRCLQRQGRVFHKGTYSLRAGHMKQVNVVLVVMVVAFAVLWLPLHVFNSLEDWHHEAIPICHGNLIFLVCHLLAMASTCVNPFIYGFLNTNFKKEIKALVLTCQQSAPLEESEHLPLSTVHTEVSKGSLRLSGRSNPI

Effect of compound on potency (pEC50) of NPY at Y1R (in words) (human Y1R): small PAM effect
Effect of compound on potency (pEC50) of NPY at Y5R (in words) (human Y5R): negative allosteric effect
Effect of compound on potency (pEC50) of NPY at Y2R (in words) (human Y2R): no effect
IP accumulation following stimulation of Y4R (DMSO set to 100%) (human Y4R): 185.7 ± 23.5%
Effect of compound on potency (pEC50) of PP at Y4R (in words) (human Y4R): increase the potency of PP
EC50 (human Y4R; [3]): 620 nM
Increase in the potency of PP at Y4R (EC50 shift) (human Y4R; in presence of compound): 4 fold
Compound: O=C(Nc1ccc([N+](=O)[O-])cc1Cl)c1cc(Cl)ccc1O [Niclosamide, reference compound]
IP accumulation following stimulation of Y1R (DMSO set to 100%) (human Y1R; [5]): 125.4 ± 14.6%
IP accumulation following stimulation of Y5R (DMSO set to 100%) (human Y5R; [5]): 83.4 ± 5.9%
IP accumulation following stimulation of Y2R (DMSO set to 100%) (human Y2R; [5]): 88.5 ± 6.2%

Effect of compound on potency (pEC50) of NPY at Y2R (in words) (human Y2R): slight PAM effect
Y4R PAM activity, potentiation of a PP EC20 response (in words) (human Y4R): inactive
Compound: O=C(Nc1cc(C(F)(F)F)ccc1Cl)c1ccc(F)c([N+](=O)[O-])c1 [VU0114795]

Y4R PAM activity, potentiation of a PP EC20 response (in words) (human Y4R): inactive
Compound: O=C(Nc1ccc([N+](=O)[O-])cc1Cl)c1ccncc1 [VU0357475]

Effect of compound on potency (pEC50) of NPY at Y1R (in words) (human Y1R): no effect
Effect of compound on potency (pEC50) of PP at Y4R (in words) (human Y4R): increase the potency of PP
EC50 (human Y4R; [3]): > 10000 nM
Compound: O=C(Nc1ccc(Cl)cc1)c1cc([N+](=O)[O-])ccc1O [VU0049150]

Effect of compound on potency (pEC50) of NPY at Y1R (in words) (human Y1R): no effect
Effect of compound on potency (pEC50) of NPY at Y2R (in words) (human Y2R): slight PAM effect
Effect of compound on potency (pEC50) of PP at Y4R (in words) (human Y4R): increase the potency of PP
EC50 (human Y4R; [3]): > 10000 nM
Compound: Cc1ccc(NC(=O)c2cc([N+](=O)[O-])ccc2O)cc1 [VU0048992]

The remaining lines, values behind:

Compound: O=C(Oc1ccc(Cl)cc1C(=O)Nc1ccc([N+](=O)[O-])cc1Cl)c1ccc([N+](=O)[O-])cc1 [VU0118748]
Effect of compound on potency (pEC50) of NPY at Y1R (in words) (human Y1R): no effect
Effect of compound on potency (pEC50) of NPY at Y5R (in words) (human Y5R): negative allosteric effect
Effect of compound on potency (pEC50) of PP at Y4R (in words) (human Y4R): increase the potency of PP
EC50 (human Y4R; [3]): 473 nM
EC50 (human Y4R; [4]): 437 nM
Compound still intact [1]: 95%

Compound: NCCO.O=C(Nc1ccc([N+](=O)[O-])cc1Cl)c1cc(Cl)ccc1O [ethanolamine salt form of Niclosamide]
Efficacy on diabetic symptoms (plasma insulin decline, insulin response, high fat diet induced obesity) [2]: efficacious

Compound: O=C(Nc1ccc([N+](=O)[O-])cc1)c1cc(Br)ccc1O [VU0048913]
Effect of compound on potency (pEC50) of NPY at Y1R (in words) (human Y1R): no effect
Effect of compound on potency (pEC50) of NPY at Y2R (in words) (human Y2R): slight PAM effect
Effect of compound on potency (pEC50) of PP at Y4R (in words) (human Y4R): increase the potency of PP
EC50 (human Y4R; [3]): 566 nM
EC50 (human Y4R; [4]): 575 nM

Compound: pancreatic polypeptide (APLEPVYPGDNATPEQMAQYAADLRRYINMLTRPRY; ends and bridges not checked; UniProt P01298 30-65, looked up) [PP, native peptide ligand of the Y4R]
PP EC20 (Y4R): 0.055 ± 0.027 nM
PP EC80 (Y4R): 0.836 ± 0.033 nM

Compound: Nc1ncnc2c1ncn2[C@@H]1O[C@H](CO)[C@@H](O)[C@H]1O [adenosine, reference compound]
Effect on Y1R signal transduction (in words) (human Y1R; 10 μM compound, 1 nM NPY): slightly decrease
Effect on Y5R signal transduction (in words) (human Y5R; 10 μM compound, 1 nM NPY): slightly decrease
IP accumulation following stimulation of Y4R (DMSO set to 100%) (human Y4R): 120 ± 11%

Compound: COc1ccc(/C=C/C(=O)c2ccc(O)cc2O)cc1OC [VU0244224]
Effect on Y1R signal transduction (in words) (human Y1R; 10 μM compound, 1 nM NPY): no effects
Effect on Y5R signal transduction (in words) (human Y5R; 10 μM compound, 1 nM NPY): no effects
Effect on Y2R signal transduction (in words) (human Y2R; 10 μM compound, 1 nM NPY): no effects
IP accumulation following stimulation of Y4R (DMSO set to 100%) (human Y4R): 127 ± 19%
